According to patent US9918975B2, “Method for improving dissolution of anticoagulant agent” (Daiichi Sankyo Company, Limited, priority 2010, dated 2018):

Experiment: Solubility of compound I in aqueous solutions
Assay type: physicochemical

With `CN1CCc2nc(C(=O)N[C@@H]3C[C@@H](C(=O)N(C)C)CC[C@@H]3NC(=O)C(=O)Nc3ccc(Cl)cn3)sc2C1` [compound I, N^1-(5-chloropyridin-2-yl)-N^2-((1S,2R,4S)-4-[(dimethylamino)carbonyl]-2-{[(5-methyl-4,5,6,7-tetrahydrothiazolo[5,4-c]pyridin-2-yl)carbonyl]amino}cyclohexyl)ethanediamide] the solubility (neutral aqueous solutions (e.g., a neutral buffer)) was “reduced solubility” and the solubility (strongly acidic aqueous solutions) was “favorable solubility”.
